Values joined by “and” are separate entries in the source; they are usually repeats but may differ in a detail not shown here. Equal entries are not always repeated.
Experiments:
CpomOrco [1] = target: T1, CpomOrco (Cydia pomonella, UniProt H9A5M2); experiment: Calcium imaging (Fluo-4) of HEK293A cells transfected with wild-type CpomOrco, VUAA1 stimulation; assay type: cell-based; settings: for Fluo4 + cells, %: of bright field cells; for EC50 / Hill coefficient / maximum response (Hill fit of calcium response amplitudes): HEK293A, CpomOrco
Description: (§1) HEK293 cells lines (HEK293A/HEK293T) were grown in HEK cell media [Dulbecco's modified Eagle's medium containing 10% fetal bovine serum (MP Biomedicals, Solon, OH, USA), 2.0 mM L-glutamine, and 100 µg/mL penicillin/streptomycin (Invitrogen)] at 37 °C and 5% CO2. To test transient expression of wild type CpomOrco and CpomOrco^Q417H variant for calcium imaging and patch-clamp recording, 35-mm petri dishes containing semi-confluent HEK293A cells were transiently transfected. Cells were transfected with 0.6 µg of pcDNA40-DEST carrying the coding sequence of the CpomOrco variant (depending on the experiments). To report expression for calcium imaging experiments, 0.6 µg of a separate plasmid DNA [pEBFP2-Nuc, a gift from Robert Campbell (Addgene plasmid # 1489352)] carrying the coding sequence for a blue fluorescent protein (EBFP) was co-transfected. To report expression in patch-clamp recordings, 1.0 µg of a separate plasmid DNA (pXOOM, Clontech, Mountain View, CA, USA) carrying the coding sequence for a green fluorescent protein (GFP) was co-transfected. Expressions of fluorescent reporter genes were under the regulation of the same promoter for Cpom-genes (CMV). For specific experiments, co-transfections were conducted combining an additional 1.2 µg of pcDNA40-DEST/CpomOR3 or pcDNA40-DEST/CpomOR6a, as we previously described. Co-transfections with CpomOR3 were performed for dose–response experiments to pear ester: CpomOR3 was co-expressed with CpomOrco variants by the use of HEK293T (Fig. 3b); given the reported functional co-expression data of the CpomOrco + OR3 heteromers by the use of these specific cells. In brief, transfection DNAs were dissolved in 100 µL sterile DMEM, mixed with 3.0 µL Calfectin (SignaGen, Rockville, MD, USA) following the recommended protocol. Transfections were conducted overnight for up to 18 h, HEK cell media was replaced with 2.0 mL fresh media to incubate cells at 37 °C for up to 6–8 h, at which point part of the cell culture was spread in the middle of a 35-mm plate as individual cells or small clusters and rinsed at the sides with 2.0 mL fresh HEK media. After splitting, cells were allowed to recover for at least 1 day prior to calcium imaging.
(§2) Activation of HEK293 cells transfected with CpomOrco variants was tested using the same procedures we previously described. Petri dishes were incubated for 1 h at room temperature in 1.0 mL HEK Ca^++ Ringer (mM: 140 NaCl, 5.0 KCl, 2.0 CaCl2, 10 HEPES, pH 7.4) containing the fluorescent calcium indicator Fluo-4AM (Invitrogen) at 5–15 µM prepared with 0.2–0.06% Pluronic F-127 (Invitrogen). To monitor intracellular pH, HEK293A cells were loaded with 10.0 µL BCECF dye (Anaspec, Fremont, CA).
(§3) As reported in Cattaneo et al.[14], the buffer was removed after incubation, cells were rinsed with 4.0 mL fresh HEK Ca^++ Ringer and placed on the stage of an inverted microscope (Olympus IX-71, Olympus Corp., Tokyo, Japan) equipped with a cooled CCD camera (ORCA R2, Hamamatsu, Hamamatsu City, Japan). Cells were continuously superfused with Ca^++ Ringer using two gravity fed perfusion contours. The […] contour washing the cells (~ 250 µL/min) was switched rapidly to the stimulus contour using a multi-channel rapid solution changer (RSC-160, Bio-Logic, Claix, France) under the software control of Clampex 9 (Molecular Devices, Sunnyvale, CA, USA).
(§4) Fluorescence imaging was performed using settings optimized for Imaging Workbench 6 software (INDEC BioSystems, Santa Clara, CA, USA)[14]. The non-responsive cells were not included in these analyses. Each cell was assigned a region of interest (ROI) and changes in fluorescence intensity within each ROI were measured and expressed as the fractional change in fluorescence intensity (dF). Stored time series image stacks were analysed off-line using Imaging Workbench 6, Clampfit 10.5 (Molecular Devices) and SigmaPlot 11 (Systat Software Inc., San Jose, CA, USA). Dose–response curves were approximated using Hill equation. […]

CpomOrco^Q417H = CpomOrco^Q417H (Cydia pomonella, UniProt H9A5M2, Q417H); experiment: Calcium imaging (Fluo-4) of HEK293A cells transfected with mutagenized CpomOrco^Q417H, VUAA1 stimulation; assay type: cell-based; settings: for EC50: EC50, HEK293A; for Hill coefficient / maximum response (Hill fit of calcium response amplitudes): HEK293A
Description: as §1, §2, §3, §4

CpomOrco [2] = target: T1, CpomOrco; experiment: Whole-cell voltage-clamp recordings of HEK293A cells transfected with CpomOrco, VUAA1; assay type: cell-based; settings: for EC50: EC50 (K1/2)
Description: as §1
Electrophysiological experiments were performed according with the same procedures we previously described. Patch pipettes were fabricated from borosilicate capillary glass (BF150-86–10, Sutter Instrument, CA, USA) using a Flaming-Brown micropipette puller (P-87, Sutter Instrument). Only patches with initial cell-attached seal resistance estimated higher than 1.0 GOhms were used in the experiments. Intracellular (pipette) solution for whole-cell experiments was KCl 140 mM, EGTA 1 mM, Hepes 5 mM, MES 5 mM, pH 8.0 or pH 5.5 (depending on the experiment) adjusted with either NaOH or HCl, standard Na^+ 140 mM. bath solution was usually NaCl 140 mM, EGTA 0.1 mM, Hepes 10 mM, pH 7.4 (adjusted with Tris-base or NaOH). VUAA1 doses (0–1000 µM) were added to the extracellular test solutions.
As described in methods of Cattaneo et al.[14], GFP positive HEK293A cells were visualized using either an Axiovert 100 inverted microscope (Carl Zeiss, Inc., München, Germany) equipped with a mercury vapour compressed-arc lamp (HBO100) coupled to widefield fluorescence filter set (1114–459, Carl Zeiss, Inc.) or Olympus IX-71 inverted microscope described above (Olympus Corp.). The Orco channel-mediated currents were investigated using whole-cell patch-clamp recordings. The currents were measured with a 200B patch-clamp amplifier (Molecular Devices) and a digital interface (Digidata 1320A, Molecular Devices), low pass filtered at 5.0 kHz, sampled at 1–2 kHz. Analysis of the data was carried out using pCLAMP 9.2/10.5 software (Molecular Devices) and SigmaPlot 11 (Systat Software Inc). […]

CpomOrco+OR6a = experiment: VUAA1 responsiveness (Fluo4 +) of HEK293A cells co-transfected with CpomOrco and CpomOR6a; assay type: cell-based, Cydia pomonella; settings: for Fluo4 + cells, %: of bright field cells
Description: HEK293 cells lines (HEK293A/HEK293T) were grown in HEK cell media [Dulbecco's modified Eagle's medium containing 10% fetal bovine serum (MP Biomedicals, Solon, OH, USA), 2.0 mM L-glutamine, and 100 µg/mL penicillin/streptomycin (Invitrogen)] at 37 °C and 5% CO2. To test transient expression of wild type CpomOrco and CpomOrco^Q417H variant for calcium imaging and patch-clamp recording, 35-mm petri dishes containing semi-confluent HEK293A cells were transiently transfected. Cells were transfected with 0.6 µg of pcDNA40-DEST carrying the coding sequence of the CpomOrco variant (depending on the experiments). To report expression for calcium imaging experiments, 0.6 µg of a separate plasmid DNA [pEBFP2-Nuc, a gift from Robert Campbell (Addgene plasmid # 1489352)] carrying the coding sequence for a blue fluorescent protein (EBFP) was co-transfected. To report expression in patch-clamp recordings, 1.0 µg of a separate plasmid DNA (pXOOM, Clontech, Mountain View, CA, USA) carrying the coding sequence for a green fluorescent protein (GFP) was co-transfected. Expressions of fluorescent reporter genes were under the regulation of the same promoter for Cpom-genes (CMV). For specific experiments, co-transfections were conducted combining an additional 1.2 µg of pcDNA40-DEST/CpomOR3 or pcDNA40-DEST/CpomOR6a, as we previously described. […]
as §4, with “The non-responsive cells were not included in these analyses.” left out, “USA).” for “USA). Dose–response curves were approximated using Hill equation.”

[3] = after 30 min incubation at low pHe = 4.7
[4] = control pH conditions (pH 7.4), Hill fit
[5] = intracellular pH = 5.5, extracellular pH 7.4, -50 mV
[6] = intracellular pH = 8.0, extracellular pH 7.4, -50 mV

CpomOrco^Q417H, sequence (H9A5M2 entry or part of it Q417H): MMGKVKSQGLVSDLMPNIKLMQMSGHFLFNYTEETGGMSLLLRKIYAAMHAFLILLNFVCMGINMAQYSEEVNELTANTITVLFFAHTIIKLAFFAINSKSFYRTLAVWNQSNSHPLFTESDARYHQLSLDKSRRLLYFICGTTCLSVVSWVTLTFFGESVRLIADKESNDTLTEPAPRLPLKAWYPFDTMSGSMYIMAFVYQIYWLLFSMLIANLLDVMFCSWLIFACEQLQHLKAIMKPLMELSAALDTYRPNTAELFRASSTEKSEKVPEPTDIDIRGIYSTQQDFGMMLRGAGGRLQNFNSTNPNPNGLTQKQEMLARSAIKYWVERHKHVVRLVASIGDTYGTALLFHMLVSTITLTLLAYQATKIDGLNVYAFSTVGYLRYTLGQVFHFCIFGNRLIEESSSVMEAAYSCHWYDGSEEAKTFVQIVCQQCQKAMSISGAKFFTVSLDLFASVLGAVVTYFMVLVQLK
T1 sequence (H9A5M2 entry or part of it): as the sequence (H9A5M2 entry or part of it Q417H) above, with H417Q counted along it

SMILES: CCc1ccc(NC(=O)CSc2nnc(-c3cccnc3)n2CC)cc1 [VUAA1, acetamide,N-(4-ethylphenyl)-2-[[4-ethyl-5-(3-pyridinyl)-4H-1,2,4-triazol-3-yl]thio]-]
- Fluo4 + cells, % (CpomOrco [1]; 800 µM VUAA1, Experiment 1, CpomOrco): 30,99%
- Fluo4 + cells, % (CpomOrco [1]; 800 µM VUAA1, Experiment 2, CpomOrco): 35,06%
- percentage of cells sensitive to VUAA1 (relative to total number of visible cells) (CpomOrco [1]; 800 µM VUAA1, HEK293A transfected with CpomOrco and EBFP, range of two experiments): 30.99–35.06%
- EC50 (CpomOrco [1]; [3]): ~260 µM
- Hill coefficient (CpomOrco [1]; [3]): ~ 2.5 ± 4.3
- maximum response (Hill fit of calcium response amplitudes) (CpomOrco [1]; after 30 min incubation at low pHe = 4.7, n = 84, constraints applied to fit): ~ 1.3 ± 0.7 ∆F and 1.3 ∆F
- Hill coefficient (CpomOrco [1]; control pH conditions (pH 7.4)): ~ 2.4 ± 0.1
- EC50 (CpomOrco [1]; [4]): ~157 µM
- maximum response (Hill fit of calcium response amplitudes) (CpomOrco [1]; control pH conditions (pH 7.4), N = 123 cells): ~ 6.3 ∆F and ~ 6.3 ± 0.1 ∆F and 6.3 ∆F
- EC50 (CpomOrco^Q417H; [3]): ~263 µM
- EC50 (CpomOrco^Q417H; [4]): ~261 µM and ~262 µM
- Hill coefficient (CpomOrco^Q417H; [3]): ~ 2.2 ± 0.5
- maximum response (Hill fit of calcium response amplitudes) (CpomOrco^Q417H; after 30 min incubation at low pHe = 4.7, n = 63, constraints applied to fit): ~ 1.8 ± 0.2 ∆F and 1.8 ∆F
- Hill coefficient (CpomOrco^Q417H; control pH conditions (pH 7.4)): ~ 2.1 ± 1.9
- maximum response (Hill fit of calcium response amplitudes) (CpomOrco^Q417H; control pH conditions (pH 7.4), N = 94 cells): ~ 3.9 ∆F and ~ 3.9 ± 1.3 ∆F and 3.9 ∆F
- EC50 (CpomOrco [2]; [5]): ~561 µM
- EC50 (CpomOrco [2]; [6]): ~403 µM
- h (Hill equation) (CpomOrco [2]; intracellular pH = 5.5): ~ 5 ± 3.9
- number of cells sensitive to VUAA1 (CpomOrco [2]; intracellular pH = 5.5, GFP positive cells tested): 3 out of 4
- Imax (whole-cell current amplitude, Hill fit) (CpomOrco [2]; [5]): ~ 196 pA and ~ 196 + -32 pA
- h (Hill equation) (CpomOrco [2]; intracellular pH = 8.0): ~ 4 ± 0.6
- number of cells sensitive to VUAA1 (CpomOrco [2]; intracellular pH = 8.0, GFP positive cells tested): 8 out of 13
- Imax (whole-cell current amplitude, Hill fit) (CpomOrco [2]; [6]): ~ 784 pA and ~ 784 ± 40 pA
- Fluo4 + cells, % (CpomOrco+OR6a; 800 µM VUAA1, Experiment 3, CpomOrco+OR6a): 48,34%
- Fluo4 + cells, % (CpomOrco+OR6a; 800 µM VUAA1, Experiment 4, CpomOrco+OR6a): 49,71%
- percentage of VUAA-responsive cells (CpomOrco+OR6a; 800 µM VUAA1, HEK293A co-transfected with CpomOrco, CpomOR6a and EBFP, range of two experiments): 48.34–49.71%

Source: PMC7887336, “Altered functional properties of the codling moth Orco mutagenized in the intracellular loop-3” (Scientific Reports, 2021)
